Test system: PBMCs
Test: LPS-induced IL-8 release in PBMC cells
Assay type: cell-based
Conditions: Homo sapiens, LPS-stimulated PBMCs, read-out: IC50 Values for Inhibition of Cytokine Release PBMCs IL-8
Method: Peripheral blood mononuclear cells (PBMCs) from healthy subjects are separated from whole blood using a density gradient (Lymphoprep, Axis-Shield Healthcare). The PBMCs are seeded in 96 well plates and treated with compounds at the desired concentration for 2 hours before addition of 1 ng/mL LPS (Escherichia Coli 0111:B4 from Sigma Aldrich) for 24 hours under normal tissue culture conditions (37° C., 5% CO2). The supernatant is harvested for determination of IL-8 and TNFα concentrations by sandwich ELISA (Duo-set, R&D systems) and read on the fluorescence microplate reader (Varioskan® Flash, ThermoFisher Scientific).

| SMILES | IC50 [nM] |
| --- | --- |
| COc1c(NC(=O)c2ccc(C)c(-c3ccc4nc(Nc5ccc(S(C)(=N)=O)cc5)ncc4c3)c2)cc(C(C)(C)C)cc1NS(C)(=O)=O (stereo not drawn) [14(t), N-(5-(tert-Butyl)-2-methoxy-3-(methylsulfonamido)phenyl)-4-methyl-3-(2-((4-(S-methylsulfonimidoyl)phenyl)amino)quinazolin-6-yl)benzamide] | 67.6 |
| COc1c(NC(=O)c2ccc(C)c(-c3ccc4nc(Nc5cccc(OS(C)(=O)=O)c5)ncc4c3)c2)cc(C(C)(C)C)cc1NS(C)(=O)=O [14(a), 3-((6-(5-((5-(tert-Butyl)-2-methoxy-3-(methylsulfonamido)phenyl)carbamoyl)-2-methylphenyl)quinazolin-2-yl)amino)phenyl methanesulfonate] | 31.1 |
| COc1cc(Nc2ncc3cc(-c4cc(C(=O)Nc5cc(C(C)(C)C)cc(NS(C)(=O)=O)c5OC)ccc4C)ccc3n2)cc(S(=O)(=O)N(C)CCN2CCOCC2)c1 [14(c), N-(5-(tert-Butyl)-2-methoxy-3-(methylsulfonamido)phenyl)-3-(2-((3-methoxy-5-(N-methyl-N-(2-morpholinoethyl)sulfamoyl)phenyl)amino)quinazolin-6-yl)-4-methylbenzamide] | 18.6 |
| COc1c(NC(=O)c2ccc(C)c(-c3ccc4nc(Nc5cc(C#N)cc(OCCN6CCOCC6)c5)ncc4c3)c2)cc(C(C)(C)C)cc1NS(C)(=O)=O [14(b), N-(5-(tert-Butyl)-2-methoxy-3-(methylsulfonamido)phenyl)-3-(2-((3-cyano-5-(2-morpholinoethoxy)phenyl)amino)quinazolin-6-yl)-4-methylbenzamide] | 15.2 |
| COc1cc(Nc2ncc3cc(-c4cc(C(=O)Nc5cc(C(C)(C)C)cc(NS(C)(=O)=O)c5OC)ccc4C)ccc3n2)ccc1C(=O)NCCN1CCN(C)C(C)(C)C1 [14(al), 4-((6-(5-((5-(tert-Butyl)-2-methoxy-3-(methylsulfonamido)phenyl)carbamoyl)-2-methyl-phenyl)quinazolin-2-yl)amino)-2-methoxy-N-(2-(3,3,4-trimethylpiperazin-1-yl)ethyl)benzamide] | 8.3 |
| COc1cc(Nc2ncc3cc(-c4cc(C(=O)Nc5cc(C(C)(C)C)cc(NS(C)(=O)=O)c5OC)ccc4C)ccc3n2)ccc1C(=O)NCCN1CCCOCC1 [14(y), N-(2-(1,4-Oxazepan-4-yl)ethyl)-4-((6-(5-((5-(tert-butyl)-2-methoxy-3-(methylsulfonamido)-phenyl)carbamoyl)-2-methylphenyl)quinazolin-2-yl)amino)-2-methoxybenzamide] | 4.6 |
| COc1cc(Nc2ncc3cc(-c4cc(C(=O)Nc5cc(C(C)(C)C)cc(NS(C)(=O)=O)c5OC)ccc4C)ccc3n2)ccc1C(=O)NCC(CO)(CO)CO [14(x), 4-((6-(5-((5-(tert-Butyl)-2-methoxy-3-(methylsulfonamido)phenyl)carbamoyl)-2-methylphenyl)quinazolin-2-yl)amino)-N-(3-hydroxy-2,2-bis(hydroxymethyl)propyl)-2-methoxybenzamide] | 7.7 |
| COCCOCCOCCOc1cc(Nc2ncc3cc(-c4cc(C(=O)Nc5cc(C(C)(C)C)cc(NS(C)(=O)=O)c5OC)ccc4C)ccc3n2)cc(OC(F)(F)F)c1 [14(r), N-(5-(tert-Butyl)-2-methoxy-3-(methylsulfonamido)phenyl)-3-(2-((3-(2-(2-(2-methoxy-ethoxy)ethoxy)ethoxy)-5-(trifluoromethoxy)phenyl)amino)quinazolin-6-yl)-4-methylbenzamide] | 49.1 |
| COc1cc(Nc2ncc3cc(-c4cc(C(=O)Nc5cc(C(C)(C)C)cc(NS(C)(=O)=O)c5OC)ccc4C)ccc3n2)ccc1C(=O)NCCc1c[nH]cn1 [14(af), N-(2-(1H-Imidazol-4-yl)ethyl)-4-((6-(5-((5-(tert-butyl)-2-methoxy-3-(methylsulfonamido)-phenyl)carbamoyl)-2-methylphenyl)quinazolin-2-yl)amino)-2-methoxybenzamide] | 13.2 |

— patent US20170209445A1, “KINASE INHIBITORS” (Respivert Limited, priority 2014, published 2017)
